Assay results published in PubChem BioAssay AID256 (DTP/NCI, 2004).
Values joined by “and” are separate entries in the source; they are usually repeats but may differ in a detail not shown here. Equal entries are not always repeated. Inconclusive results and toxic doses are left out. Rule for the calls: active = survival T/C of 150% or more; inactive = T/C below 125% in these data.

Test system: CD2F1 mice, L1210 leukemia ip, survival T/C
Assay: NCI In Vivo Anticancer Drug Screen. Data for tumor model L1210 Leukemia (intraperitoneal) in CD2F1 (CDF1) mice
Settings: endpoint: mean survival time, higher = longer survival
How it was run: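 Mice carrying a transplanted tumor received test compound or vehicle alone. The value is the measurement in the treated group divided by that in the vehicle-treated control group.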

[1] = dose: 100.0 mg/kg/injection, schedule: Q01DX009 (ip), vehicle: saline with Tween-80
[2] = dose: 200.0 mg/kg/injection, schedule: Q01DX009 (ip), vehicle: saline with Tween-80
[3] = dose: 400.0 mg/kg/injection, schedule: Q01DX009 (ip), vehicle: saline with Tween-80
[4] = dose: 100.0 mg/kg/injection, schedule: Q01DX001 (ip), vehicle: saline with Tween-80
[5] = dose: 100.0 mg/kg/injection, schedule: Q04DX003 (ip), vehicle: saline with Tween-80
[6] = dose: 200.0 mg/kg/injection, schedule: Q04DX003 (ip), vehicle: saline with Tween-80
[7] = dose: 400.0 mg/kg/injection, schedule: Q04DX003 (ip), vehicle: saline with Tween-80

Measured: T/C

S=C=NCCc1ccccc1
inactive: dose: 3.12 mg/kg/injection, schedule: Q01DX009 (ip), vehicle: saline with Tween-80 93 % of control | dose: 6.25 mg/kg/injection, schedule: Q01DX009 (ip), vehicle: saline with Tween-80 92 % of control | dose: 12.5 mg/kg/injection, schedule: Q01DX009 (ip), vehicle: saline with Tween-80 106 % of control | dose: 25.0 mg/kg/injection, schedule: Q01DX009 (ip), vehicle: saline with Tween-80 104 % of control | dose: 50.0 mg/kg/injection, schedule: Q01DX009 (ip), vehicle: saline with Tween-80 106 % of control

Cc1ccc([N+](=O)[O-])cc1NC(=O)Nc1cc([N+](=O)[O-])ccc1O
inactive: [1] 91 % of control | [2] 96 % of control | [3] 107 % of control

CC(=O)OCCN1C(=O)c2ccccc2C1=O
inactive: dose: 100.0 mg/kg/injection, schedule: Q04DX003 (ip), vehicle: Klucel (hydroxypropylcellulose) (HPC) 97 % of control | dose: 200.0 mg/kg/injection, schedule: Q04DX003 (ip), vehicle: Klucel (hydroxypropylcellulose) (HPC) 94 % of control | dose: 400.0 mg/kg/injection, schedule: Q04DX003 (ip), vehicle: Klucel (hydroxypropylcellulose) (HPC) 102 % of control

CC(O)C1=CC(c2ccccc2)(c2ccccc2)c2ccccc21 (stereo not drawn)
inactive: [4] 95 % of control | dose: 200.0 mg/kg/injection, schedule: Q01DX001 (ip), vehicle: saline with Tween-80 91 % of control | dose: 400.0 mg/kg/injection, schedule: Q01DX001 (ip), vehicle: saline with Tween-80 88 % of control

COC(=O)Nc1nc2ccc(C(=O)c3ccccc3)cc2[nH]1
inactive: dose: 2.0 mg/kg/injection, schedule: Q04DX003 (ip), vehicle: saline with Tween-80 94 % of control | dose: 4.0 mg/kg/injection, schedule: Q04DX003 (ip), vehicle: saline with Tween-80 94 % of control | dose: 8.0 mg/kg/injection, schedule: Q04DX003 (ip), vehicle: saline with Tween-80 91 % of control | dose: 16.0 mg/kg/injection, schedule: Q04DX003 (ip), vehicle: saline with Tween-80 100 % of control and 112 % of control

Nc1nc(N)c(-c2ccc(Cl)cc2)c(COc2ccc(C3(CCl)OCCO3)cc2)n1
inactive: dose: 25.0 mg/kg/injection, schedule: Q01DX001 (ip), vehicle: saline with Tween-80 94 % of control | dose: 50.0 mg/kg/injection, schedule: Q01DX001 (ip), vehicle: saline with Tween-80 102 % of control | [4] 100 % of control

CCN(CC)c1ccc2cc(-c3nc4ccccc4n3C)c(=O)oc2c1
inactive: dose: 3.13 mg/kg/injection, schedule: Q01DX009 (ip), vehicle: Klucel (hydroxypropylcellulose) (HPC) 90 % of control | dose: 6.25 mg/kg/injection, schedule: Q01DX009 (ip), vehicle: Klucel (hydroxypropylcellulose) (HPC) 91 % of control and 93 % of control and 96 % of control | dose: 12.5 mg/kg/injection, schedule: Q01DX009 (ip), vehicle: Klucel (hydroxypropylcellulose) (HPC) 93 % of control and 96 % of control and 103 % of control | dose: 50.0 mg/kg/injection, schedule: Q01DX009 (ip), vehicle: Klucel (hydroxypropylcellulose) (HPC) 120 % of control and 121 % of control and 103 % of control

ClCc1ccc2ccccc2n1
inactive: [1] 109 % of control | [5] 104 % of control | [2] 104 % of control | [6] 104 % of control | [7] 101 % of control

CCCCCCC[CH2][Sn]1([CH2]CCCCCCC)[O]C2C(CO)OC(n3ccc(N)nc3=O)C2[O]1 (stereo not drawn)
inactive: dose: 12.5 mg/kg/injection, schedule: Q01DX005 (ip), vehicle: other 103 % of control | dose: 25.0 mg/kg/injection, schedule: Q01DX005 (ip), vehicle: other 97 % of control | dose: 50.0 mg/kg/injection, schedule: Q01DX005 (ip), vehicle: other 100 % of control | dose: 100.0 mg/kg/injection, schedule: Q01DX005 (ip), vehicle: other 109 % of control

O=C(/C=C/c1ccncc1)c1ccccc1
inactive: [1] 92 % of control | [5] 89 % of control | [2] 89 % of control | [6] 89 % of control | [3] 91 % of control | [7] 95 % of control

O=C1c2ccccc2C(=O)c2c(Cl)cccc21
inactive: [1] 88 % of control | [5] 93 % of control | [2] 86 % of control | [6] 93 % of control | [3] 90 % of control | [7] 91 % of control

c1ccc2c[n+](CCc3c[nH]c4ccccc34)ccc2c1
inactive: dose: 25.0 mg/kg/injection, schedule: Q04DX002 (ip), vehicle: other 100 % of control | dose: 50.0 mg/kg/injection, schedule: Q04DX002 (ip), vehicle: other 104 % of control
